These results are taken from ChEMBL document CHEMBL1148672, “Mimicking the biological activity of diazobenzo[b]fluorene natural products with electronically tuned diazofluorene analogs” (2006).

Assay [1] concerns Nucleic Acid. The experiment in a line: Cleavage of supercoiled DNA plasmid pBR322 after 2 days. It is filed as nucleic-acid assay.
Assay [2] concerns Nucleic Acid. As to the kind of experiment: Cleavage of supercoiled DNA plasmid pBR322 after 2 days in presence of dithiothreitol. It is filed as nucleic-acid assay.
In assay [3] the test system is Nucleic Acid. The experiment in a line: Conversion of type 1 supercoiled DNA to type 2 nicked DNA in presence of dithiothreitol. It is filed as nucleic-acid assay. Details: concentration or dose not given beside the values.
For assay [4], the system named is Nucleic Acid. The experiment in a line: Conversion of type 1 supercoiled DNA to type 2 nicked DNA. It is filed as nucleic-acid assay. Set-up: concentration or dose not given beside the values.
Assay [5] deals with Nucleic Acid. The experiment in a line: Conversion of type 1 supercoiled DNA to type 2 nicked DNA in presence of dithiothreitol relative to Kinamycin D. It is filed as nucleic-acid assay.
In assay [6] the test system is Nucleic Acid. As to the kind of experiment: Cleavage of supercoiled DNA plasmid pBR322 after 2 days in presence of sodium cyanide. It is filed as nucleic-acid assay.
For assay [7], the system named is Nucleic Acid. The experiment in a line: Cleavage of supercoiled DNA plasmid pBR322 after 2 days in presence of NADPH. It is filed as nucleic-acid assay.
In assay [8] the test system is HeLa. As to the kind of experiment: Antiproliferative activity against HeLa cells at 100 nM. To be noted: Homo sapiens. It is filed as functional, cell-based.
Assay [9] has as its system HeLa. As to the kind of experiment: Antiproliferative activity against HeLa cells at 100 nM after 12 hrs. It is filed as functional. To be noted: Homo sapiens.

The source made the active and inactive calls. No cut-off for these calls is given here.

On to `CC(=O)O[C@@H]1c2c(c3c(=O)c4cccc(O)c4c(=O)c=3c2=[N+]=[N-])[C@H](O)[C@@H](OC(C)=O)[C@]1(C)O`, for which, in the assay on Nucleic Acid [1], the result was inactive. Also, the figures for the Activity result in the assay on Nucleic Acid [2], with Nucleic Acid [3] and in the assay on Nucleic Acid [4] were “Time-dependent effect”, 28% and less than 5%, respectively.

`[N-]=[N+]=C1c2ccccc2-c2c1cccc2[N+](=O)[O-]`: the Activity with Nucleic Acid [3] and in the assay on Nucleic Acid [4] was less than 5% throughout.

With `[N-]=[N+]=C1c2ccccc2-c2c(N)cccc21`, the result in the assay on Nucleic Acid [1] and in the assay on Nucleic Acid [2] was Active. In addition, the Activity came out at 18% with Nucleic Acid [3], 44% in the assay on Nucleic Acid [4] and 64% in the assay with Nucleic Acid [5].

On to `COc1cccc2c1-c1ccccc1C2=[N+]=[N-]`, for which the Activity in the assay on Nucleic Acid [3] was 13%; in the assay on Nucleic Acid [4], less than 5%.

In the case of `[N-]=[N+]=C1c2ccccc2-c2cccc(Cl)c21`, the Activity in the assay with Nucleic Acid [3] and with Nucleic Acid [4] was less than 5% throughout.

Regarding `[N-]=[N+]=C1c2ccccc2-c2c(Cl)cccc21`, the Activity in the assay with Nucleic Acid [3] and with Nucleic Acid [4] was less than 5% throughout.

In the case of `Nc1cccc2c1-c1ccccc1C2=O`, the result in the assay with Nucleic Acid [1] was inactive.

As for `COc1cccc2c1C(=[N+]=[N-])c1ccccc1-2`, the outcome in the assay with Nucleic Acid [6] and with Nucleic Acid [7] was inactive. In addition, the Activity in the assay on Nucleic Acid [3] was 41%; with Nucleic Acid [4], 11%; in the assay on HeLa [8] it was “Time-dependent effect”; in the assay with Nucleic Acid [5], 150%. Moreover, in the assay on HeLa [9], the inhibition at 0.1 µM is 35%.

As for `[N-]=[N+]=C1c2ccccc2-c2cccc([N+](=O)[O-])c21`, the Activity with Nucleic Acid [3] and with Nucleic Acid [4] was less than 5% throughout.

Take `COc1ccc(OC)c2c1C(=[N+]=[N-])c1ccccc1-2`: the Activity was 9% with Nucleic Acid [3] and less than 5% in the assay with Nucleic Acid [4].

As to `COc1cccc2c1C(=O)c1ccccc1-2`, in the assay on Nucleic Acid [1], the result was inactive.

Consider `[N-]=[N+]=C1c2ccccc2-c2ccccc21`, for which the Activity in the assay on Nucleic Acid [3] and with Nucleic Acid [4] was less than 5% in each case.

`[N-]=[N+]=c1c2c(=O)ccc(=O)c=2c2ccccc12`: the Activity with Nucleic Acid [3] was 10%; in the assay on Nucleic Acid [4], less than 5%.

As usually defined, the inhibition is the relative decrease from the control value, in per cent.
